Test results as given in patent US20200368314A1, “PEPTIDES FOR TREATMENT AND PREVENTION OF NONALCOHOLIC FATTY LIVER DISEASE” (UNIVERSITE DE STRASBOURG, priority 2017, published 2020).
Entries after “also recorded” stand apart in the source; their conditions may differ.

Tests used:
[1] = tested on: GLP-1; assay: Circulating GLP-1 enzyme immunoassay; assay type: in vivo, mouse; conditions: plasma; 11 days post single injection
Method: FIG. 4: PATAD stapled peptide sequence A reduces FATP2 expression level in the adipose tissue and increases GLP-1 circulating levels • (A)4 month-old male mice fed with a high fat/high glucose diet were used in this set of experiment.
Mice were injected with a single dose of either scramble peptide or PATAD stapled peptide sequence A. 11 days post injection, the mice were euthanized, and plasma was obtained and used for determination of circulating GLP1 from mice with the indicated treatment.
(§1) For GLP-1 measurement, a commercially available kit was used. RayBio Human/Mouse/Rat GLP-1 Enzyme Immunoassay Kit, EIA-GLP1, RayBiotech were used with the indicated procedures from the manufacturer. For the plasma albumin level determination, a commercially available kit was used.

[2] = tested on: AST (Aspartate Aminotransferase); assay: Plasma AST ELISA; assay type: in vivo, mouse; conditions: 3 months after a single subcutaneous injection, n=4
Method: (§2) Mean values of both AST and ALT measured by ELISA approach in plasma of mice with the indicated treatment. n=4 samples per group.
(§3) Mice presented in FIG. 1 were euthanized and their plasma and organs were sampled for analysis. […] Cryosection of the livers were then stained with Adipored and DAPI to detect the level of lipid droplets. […] Hepatic function is assessed by two liver related strong biomarkers namely (AST (Aspartate Aminotransferase) and ALT (Alanine Aminotransferase)), whose levels increase proportionately with liver damage.
(§4) Plasma samples from the indicated mice were used to determine plasma content of either AST (aspartate aminotransferase) or […] (alanine aminotransferase) both robust indicators of liver damage were measured using commercially purchased ELISA kits. These parameters were determined according to manufacturer's procedure.
SEB214Mu (96 Tests): Enzyme-linked Immunosorbent Assay Kit For Aspartate Aminotransferase (AST), Cloud Clone Corp

[3] = tested on: albumin; assay: Plasma free albumin determination; assay type: in vivo, mouse; conditions: 3 months after PATAD injection, N=5
Method: Lipids are transported bound to albumin and therefore plasma content of free albumin was measured as a readout of the effect of PATAD stapled peptide sequence A on circulating lipid profile 3 months after PATAD injection. N=5 mice per group.
A decreased circulating free albumin concentration has been observed when the mice were treated with PATAD stapled peptide sequence A indicating an increase in the levels of circulating lipids (FIG. 6).
as §1

[4] = tested on: ALT (Alanine Aminotransferase); assay: Plasma ALT ELISA; assay type: in vivo, mouse; conditions: 3 months after a single subcutaneous injection, n=4
Method: as §2, §3, §4
SEA207Mu (96 Tests): Enzyme-linked Immunosorbent Assay Kit For Alanine Aminotransferase (ALT), Cloud Clone Corp

[5] = tested on: FATP2 (Fatty acid transport protein 2); assay: q-PCR expression of fatty acid transporters in adipose tissue; assay type: in vivo, mouse; conditions: high fat/high glucose diet male mice; 11 days post single injection; GAPDH reference gene
From the text: n=4 animals per group, GAPDH was used as reference gene. There are 6 isoforms of FATP (FATP1-6 also known as SLC27A1-SLC27A6).
As PATAD subcutaneous injection relates to restoration of glucose absorption in the adipose tissue, the inventors measured the expression levels of all 6 isoforms for the FATPs (1-6) (Fatty acid transport protein 1-6) and the 4 isoforms of the FFAR (Free Fatty Acid Receptor) to assess any effect on these genes.
All peptides were initially dissolved in DMSO and then diluted in sterile saline solution at a concentration of 10 ng/μL. 2.5 μL of each peptide (stapled or scrambled) were mixed and then injected directly in the subcutaneaous adipose tissue in each mouse. […]
Total RNA was prepared from the different tissues and cells using a RiboPure™ kit (Catalog #: AM1924; Ambion) followed by a DNAse treatment with the TURBO DNA-Free™ (Catalog #: AM 1907; Ambion). RNA integrity was assessed by gel electrophoresis and RNA concentration by Eppendorf Biophotometer Plus with the Hellma® Tray Cell (Catalog #: 105.810-uvs; Hellma). […] Real-time quantitative polymerase chain reaction amplification was performed in a BioRad CFX96™ Real-Time System using the iQ™ SYBR® Green Supermix (Catalog #: 170-8886; BioRAd) and primer sets optimized for tested targets for SYBR Green-based real-time PCR for the real-time PCR. […]

[6] = tested on: DIO male mice; assay: Oral glucose tolerance test, PATAD, metformin or both; conditions: PATAD injection, metformin daily oral gavage

Row | Molecule | circulating GLP-1 concentration [1] | circulating AST level [2] | circulating free albumin concentration [3] | circulating ALT level [4] | FATP2 expression level in the adipose tissue [5] | onset of the effect on the GTT [6]
1 | VE CTM-[2-(4-pentenyl) alanine]-EK RVL A-[2-(4-pentenyl)alanine]-L DKP PFL TQL HS [PATAD stapled peptide sequence A] | restored high circulating levels; also recorded: restore GLP1 circulating levels back to lean controls | effective in reducing | decreased | effective in reducing | decreased; also recorded: reduces | 
2 | CN(C)C(=N)N=C(N)N [metformin] |  |  |  |  |  | delayed by one week
